In US20070141129A1, “Wound care product comprising a substance which inhibits the growth of bacteria in wounds” (priority 2003, published 2007):
“Also recorded” adds a separate entry of the source.

Experiments:
bacteria = conditions: bacteriological tests; cited from earlier work
group G streptococci = assay: growth of group G streptococci in BHI broth with added xylitol; format: cell-based; conditions: xylitol added to BHI, 1-10% (FIG. 4)
Protocol: (§1) The bacterial strains were stored at −70° C. Immediately prior to each experiment, these strains were taken out and placed on a blood plate and incubated overnight at 35° C. The same incubator was used in all the experiments. After that, a loop of the colonies which had grown was incubated in brain heart infusion (BHI) broth for 18 hours. 100 μl of this broth were inoculated into 3-5 ml of fresh BHI broth with or without the addition of xylitol. Different contents of xylitol were added. As is evident from FIGS. 1-5, the contents of xylitol were 1%, 2.5%, 5% and 10%.
(§2) The transmittance or translucency was measured from hour 0, and after that every hour, for 6 hours on a Biolog turbidimeter from the company Biolog Inc., Hayward, Calif., USA. The growth of bacteria reduces the translucency, i.e. the lower the transmittance the greater the growth of the bacteria.
(§3) At 0 hours and at 6 hours, 100 μl of the broth were cultured and the number of live bacteria was counted. The transmittance value and the quantity of bacteria (colony forming units/ml) in tubes with and without xylitol were then compared.

[1] = children, clinical study; cited from earlier work
VRE = assay: growth of VRE with xylitol; format: cell-based, vancocin-resistant enterococci
Protocol: as §1, §2, §3

[2] = tested on: intestinal bacteria which cause diarrhoea, bacteria which give rise to ear inflammations, yeast fungus; conditions: cited from earlier work
group B streptococci = assay: growth of group B streptococci in BHI broth with added xylitol; format: cell-based; conditions: xylitol added to BHI, 1-10% (FIG. 3)
Protocol: as §1, §2, §3

[3] = toxicity assessed as so low; cited from earlier work
alpha-streptococci = conditions: oral flora; uptake via fructose phosphotransferase system; cited from earlier work
[4] = tested on: S. aureus (including MRSA), group A, B, C and G streptococci, enterococci (including VRE) and Pseudomonas aeruginosa; assay: growth of wound infection bacteria in nutrient-rich medium with added xylitol; format: cell-based; conditions: xylitol (1-10%) in nutrient-rich medium
Protocol: as §1, §2, §3

[5] = tested on: beta-haemolytic streptococci, including group B streptococci; assay: growth of beta-haemolytic streptococci with xylitol; format: cell-based
Protocol: as §1, §2, §3

S. aureus [6] = assay: growth of S. aureus in BHI broth with added xylitol (transmittance); format: cell-based, Staphylococcus aureus
Protocol: as §1, §2, §3

[7] = tested on: epithelial cells in the skin; conditions: cited from earlier work
S. aureus [8] = conditions: cited from earlier work
P. aeruginosa = assay: growth of P. aeruginosa in BHI broth with added xylitol; format: cell-based, Pseudomonas aeruginosa; conditions: xylitol added to BHI, 1-10% (FIG. 5)
Protocol: as §1, §2, §3

[9] = tested on: S. aureus (multiresistant), MRSA strain; assay: growth of multiresistant S. aureus (MRSA strain) in BHI broth with added xylitol (transmittance); format: cell-based, Staphylococcus aureus
Protocol: as §1, §2, §3

OC[C@@H](O)[C@H](O)[C@@H](O)CO [xylitol]
mutagenic properties (increase in natural mutation frequency) (bacteria): No mutagenic properties
inhibition of growth of the bacteria (group G streptococci): very effective in inhibiting the growth
reduction of the number of ear inflammations [1]: up to 40%
inhibition of growth of the bacteria (VRE): effective in combating the growth
adherence of bacteria [2]: decreases the adherence
inhibition of growth of the bacteria (group B streptococci): effectively inhibited
limit value for an acceptable daily intake [3]: no limit value
growth of alpha-streptococci (alpha-streptococci): inhibited
reduction of growth, factor [4]: ≤ 1000
effect against the bacteria [5]: also effective
bacterial growth after 2 hours (S. aureus [6]; BHI containing 10% added xylitol, 2 hours (FIG. 1)): hardly any bacterial growth at all
translucency (transmittance) after 6 hours (S. aureus [6]; BHI nutrient solution, 10% xylitol added, 6 hours, without xylitol 20 (FIG. 1)): more than 60%
absorption by epithelial cells in the skin [7]: only absorbed to a very slight extent
production of glycocalyx (S. aureus [8]): decrease
inhibition of growth of the bacteria (P. aeruginosa): effective in combating the growth; also recorded: very effective in inhibiting the growth
translucency after 6 hours ([9]; 10% added xylitol, 6 hours, without xylitol approx. 30% (FIG. 2)): more than 70%
inhibition of growth of the bacteria ([9]; xylitol added to nutrient solution, 1-10%): effective in combating the growth; also recorded: inhibited very effectively
